Assay [1] concerns rabbit saphenous vein. In words: contraction of the rabbit saphenous vein rings mediated by the 5HT1-like receptors. In kind it is cell-based. Conditions: Oryctolagus cuniculus; for Emax: read-out: Relative Emax; for EC50: read-out: pD2 (converted). An excerpt: The derivatives of the present invention are, in addition, capable, like serotonin, of inducing the contraction of the rabbit saphenous vein rings mediated by the "5HT1-like " receptors.
The technique used was adapted from Van Heuven-Nolsen D. et al., Eur. J. Pharmacol. 191, 375-382 (1990) and from Martin G. R. and Mc Lennan S. J., Naunyn-Schmiedeberg's Arch. Pharmacol. 342, 111-119 (1990) and therefore makes it possible to determine a pD2 value and an Emax relative to serotonin for each product tested.

Assay [2] deals with T1, human 5HT1Dα (Homo sapiens, UniProt P28221).
T1 construct: expressed in transfected cells; host or cells: Cos-7 and CHO-K1
In words: binding to human 5HT1Dα receptor.
Description: (§1) The study of the binding of the derivatives of the present invention with the human 5HT1Dα, 5HT1Dβ and 5HT1A receptors was carried out according to the method described by P. Pauwels and C. Palmier (Neuropharmacology, 33, 67, 1994).
(§2) The incubation media for these binding measurements comprise 0.4 ml of cell membrane preparation, 0.05 ml of a tritiated ligand [[3H]-5CT (final concentration: 2 nM) for the 5HT1Dα and 5HT1Dβ receptors and [3H]-8OH-DPAT (final concentration: 1 nM) for the 5HT1A receptor] and 0.05 ml of the molecule to be tested (final concentrations: 0.1 to 1000 nM) or 10 μM (final concentration) of serotonin (5HT1Dα and 5HT1Dβ) or 1 μM (final concentration)of spiroxatrine (5HT1A).

Assay [3] addresses T2, human 5HT1Dβ (Homo sapiens, UniProt P28222).
T2 construct: expressed in transfected cells; host or cells: Cos-7 and CHO-K1
In words: binding to human 5HT1Dβ receptor.
Description: as §1, §2

The target in assay [4] is T3, human 5HT1A (Homo sapiens, UniProt P08908).
T3 construct: expressed in transfected cells; host or cells: HeLa HA7
T3 sequence (P08908 1-422): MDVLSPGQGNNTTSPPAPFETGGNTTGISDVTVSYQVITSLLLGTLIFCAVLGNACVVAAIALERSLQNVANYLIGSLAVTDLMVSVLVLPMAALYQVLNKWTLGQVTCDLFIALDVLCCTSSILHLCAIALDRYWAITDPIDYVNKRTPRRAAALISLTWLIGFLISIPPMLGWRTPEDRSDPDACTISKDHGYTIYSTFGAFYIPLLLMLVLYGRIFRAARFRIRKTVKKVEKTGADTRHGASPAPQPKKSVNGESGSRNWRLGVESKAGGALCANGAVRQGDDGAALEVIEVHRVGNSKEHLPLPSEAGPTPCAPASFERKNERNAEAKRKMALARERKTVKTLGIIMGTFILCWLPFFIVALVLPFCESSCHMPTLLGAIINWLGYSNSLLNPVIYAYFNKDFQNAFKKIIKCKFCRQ
In words: binding to human 5HT1A receptor (HeLa HA7 cell line). An excerpt:
The HeLa HA7 cell line expressing the human 5HT1A receptor was obtained from Tulco (Duke Univ., Durham, N.C., USA) and cultured according to the method of Fargin et al., J. Biol. Chem. 264, 14848 (1989).
Palmier (Neuropharmacology, 33, 67, 1994).

[5] abbreviates: contraction of the rabbit saphenous vein.
Where [6] appears, read: human receptor, [3H]-5CT 2 nM, read-out: Ki 5HT1Dβ.
Setting [7] is: Emax of the compound relative to Emax of serotonin.
[8] abbreviates: human receptor, HeLa HA7, [3H]-8OH-DPAT 1 nM, read-out: Ki 5HT1A.

pKi: −log10 of the molar value. Structures can show the parent of a compound that is named as a salt. Where two headings read alike, the source gives them in different places.

T2 sequence (P28222 whole entry): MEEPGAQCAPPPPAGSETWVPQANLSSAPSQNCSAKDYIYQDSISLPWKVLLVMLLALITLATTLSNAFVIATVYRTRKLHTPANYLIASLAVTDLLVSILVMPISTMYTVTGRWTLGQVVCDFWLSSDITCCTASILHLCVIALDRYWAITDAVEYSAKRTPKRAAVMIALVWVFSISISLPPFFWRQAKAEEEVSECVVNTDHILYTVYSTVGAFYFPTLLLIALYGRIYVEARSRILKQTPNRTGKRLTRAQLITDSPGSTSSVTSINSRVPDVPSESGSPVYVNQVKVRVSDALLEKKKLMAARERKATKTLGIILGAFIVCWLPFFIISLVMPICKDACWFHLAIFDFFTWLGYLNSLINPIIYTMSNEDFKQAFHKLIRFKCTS
T1 sequence (P28221 whole entry): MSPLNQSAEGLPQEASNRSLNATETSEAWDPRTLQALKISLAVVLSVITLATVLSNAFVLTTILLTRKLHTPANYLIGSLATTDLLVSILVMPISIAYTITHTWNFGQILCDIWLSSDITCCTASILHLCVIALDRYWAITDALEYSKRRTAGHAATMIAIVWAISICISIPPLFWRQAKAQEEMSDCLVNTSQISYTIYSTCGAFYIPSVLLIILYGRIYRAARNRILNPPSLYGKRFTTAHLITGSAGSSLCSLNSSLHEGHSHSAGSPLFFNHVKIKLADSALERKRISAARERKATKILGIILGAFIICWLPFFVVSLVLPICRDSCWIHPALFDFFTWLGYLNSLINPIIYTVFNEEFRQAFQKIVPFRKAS

Usually Emax stands for the size of the effect at its maximum, as opposed to the concentration needed. `CCOC(=O)CCCCOc1ccc2[nH]cc(CCN)c2c1` [Example 13, Ethyl 5-[3-(2-aminoethyl)-1H-indol-5-yloxy]pentanoate hydrochloride]: the Emax in assay [1] amounted to 120%. In addition, in assay [1] (setting [5]), the EC50 was 309 nM.

For orientation: pKi means −log10 of the Ki, conventionally taken in molar units. Turning to `CCNC(=O)CCCCCOc1ccc2[nH]cc(CCN)c2c1` [Example 20, 6-[3-(2-Aminoethyl)-1H-indol-5-yloxy]-N-ethylhexanamide hydrochloride], the negative logarithm of the Ki (pKi) in assay [2] (read-out: Ki 5HT1Dα, human receptor, [3H]-5CT 2 nM) was 8.70; in assay [3] (read-out: Ki 5HT1Dβ, human receptor, [3H]-5CT 2 nM), 8.96; in assay [4] (read-out: Ki 5HT1A, human receptor, HeLa HA7, [3H]-8OH-DPAT 1 nM), 7.33.

For `CC(=O)OCCCCOc1ccc2[nH]cc(CCN)c2c1` [Example 23, 4-[3-(2-Aminoethyl)-1H-indol-5-yloxy]butylacetate hydrochloride], the negative logarithm of the Ki (pKi) is 9.05 in assay [2], 9.40 in assay [3] and 7.40 in assay [4].

In the case of `CNS(=O)(=O)CCc1ccc2[nH]cc(C3CCN(C)CC3)c2c1` [Naratriptan, reference compound], the negative-log Ki (pKi) in assay [2] (human receptor, [3H]-5CT 2 nM, read-out: Ki 5HT1Dα) was 8.80; in assay [3] (setting [6]), 8.70; in assay [4] (setting [8]), 7.34. The Emax in assay [1] (setting [7]) was 100%. Also, the EC50 in assay [1] (setting [5]) is 2880 nM.

In the case of `CCOC(=O)CCCOc1ccc2[nH]cc(CCN)c2c1` [Example 12, Ethyl 4-[3-(2-aminoethyl)-1H-indol-5-yloxy)-butyrate hydrochloride], in assay [1], the Emax worked out at 80%. For the same compound, the EC50 in assay [1] (setting [5]) was 692 nM.

Consider `N#CCCCCCOc1ccc2[nH]cc(CCN)c2c1` [Example 17, 6-[3-(2-Aminoethyl)-1H-indol-5-yloxy]hexanitrile hydrochloride], for which the pKi in assay [2] is 8.66; in assay [3] (setting [6]) it was 8.59; in assay [4] (setting [8]), 7.61.

On to `CS(=O)(=O)NCCCCCCOc1ccc2[nH]cc(CCN)c2c1` [Example 19, N-{6-[3-(2-Aminoethyl)-1H-indol-5-yloxy]hexyl}methanesulfonamide hydrochloride], for which the negative-log Ki (pKi) was 8.96 in assay [2], 9.15 in assay [3] and 7.94 in assay [4]. In assay [1], the Emax was 100%. Moreover, the EC50 in assay [1] was 15.8 nM.

On to `NCCCCCCOc1ccc2[nH]cc(CCN)c2c1` [Example 18, 6-[3-(2-Aminoethyl)-1H-indol-5-yloxy]hexylamine hydrochloride], for which the pKi in assay [2] is 8.62; in assay [3] it was 8.70; in assay [4] it was 7.10.

As for `CNS(=O)(=O)Cc1ccc2[nH]cc(CCN(C)C)c2c1` [Sumatriptan, reference compound], the maximal effect (Emax) in assay [1] (setting [7]) was determined as 126%. The EC50 in assay [1] (setting [5]) is 1780 nM.

For the compound `CC(C)OC(=O)CCCCCOc1ccc2[nH]cc(CCN)c2c1` [Example 16, Isopropyl 6-[3-(2-aminoethyl)-1H-indol-5-yloxy]hexanoate hydrochloride], the pKi in assay [2] was 8.82; in assay [3] it was 9.15; in assay [4], 8.05. Also, the maximum response (Emax) in assay [1] worked out at 136%. Moreover, the EC50 in assay [1] (setting [5]) is 240 nM.

For the origin of these results see US5852049A, “Aromatic ethers derived from indoles which are useful as medicaments” (Pierre Fabre Medicament, priority 1994, dated 1998).
